This passage reports EC50 results from US20240270821A1, “GIP/GLP1/GCG TRI-RECEPTOR AGONISTS AND USES THEREOF” (priority 2023, published 2024).

Holding throughout (assay type): cell-based
Test [1] addresses T1, hGLP-1R (Homo sapiens, UniProt P43220). The experiment in a line: Functional cAMP activity in the presence of 1% HSA. The note with it: read-out: cAMP Rel EC50, hGLP-1R.
A further test has as its target human GcgR (Homo sapiens, UniProt P47871). The experiment in a line: Functional cAMP activity in the presence of 1% HSA. As to conditions: read-out: cAMP Rel EC50, hGcgR.
The target of test [2] is T2, hGIPR (Homo sapiens, UniProt P48546).
T2 sequence (P48546 22-466): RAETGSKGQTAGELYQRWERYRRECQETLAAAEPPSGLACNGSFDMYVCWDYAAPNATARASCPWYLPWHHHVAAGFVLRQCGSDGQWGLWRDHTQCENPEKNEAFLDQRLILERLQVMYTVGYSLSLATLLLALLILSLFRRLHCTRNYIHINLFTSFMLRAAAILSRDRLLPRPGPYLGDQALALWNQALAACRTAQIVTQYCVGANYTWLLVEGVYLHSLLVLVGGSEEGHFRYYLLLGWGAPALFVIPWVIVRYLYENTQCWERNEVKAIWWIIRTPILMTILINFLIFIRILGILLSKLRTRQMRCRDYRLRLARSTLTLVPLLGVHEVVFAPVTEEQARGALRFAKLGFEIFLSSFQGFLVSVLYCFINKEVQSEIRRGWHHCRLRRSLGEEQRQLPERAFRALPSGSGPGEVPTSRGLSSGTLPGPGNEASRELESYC
Put plainly: Functional cAMP activity in the presence of 1% HSA. As to conditions: read-out: cAMP Rel EC50, hGIPR.

Another test has as its target hGcgR (Homo sapiens, UniProt P47871). Put plainly: Functional cAMP activation in the presence of 0.1% casein (no HSA). As to conditions: read-out: Relative cAMP EC50, hGcgR.
Test [3] deals with T1, hGLP-1R. The description is as above. The note with it: read-out: Relative cAMP EC50, hGLP-1R.
Test [4] has as its target T2, hGIPR. The test is described as above. As to conditions: read-out: Relative cAMP EC50, hGIPR.
The mark [5] stands for this setting: in the presence of 0.1% casein (no HSA), geometric mean.

Like-named read-outs stand apart in the source and are kept apart here. Starred links: 1 amine or outer side, 2 acyl side, 3 side chain; linkers in the order of their positions; H or OH if unused. Non-standard residues stand in square brackets, D forms with d. Residues, ends and D or L forms follow the SMILES beside them. Groups on a side chain read outwards from the residue. *: point of attachment. C20 diacid = O=C(O)CCCCCCCCCCCCCCCCCCC(=O)*; C18 diacid = O=C(O)CCCCCCCCCCCCCCCCC(=O)*; αMePhe(2-F) = C[C@](N)(Cc1ccccc1F)C(=O)O; γGlu = O=C(O)[C@H](CCC(=O)[*:2])N[*:1]; αMe4Pal = C[C@](N)(Cc1ccncc1)C(=O)O; αMeY = C[C@](N)(Cc1ccc(O)cc1)C(=O)O; 3Pal = N[C@@H](Cc1cccnc1)C(=O)O; 4Pal = N[C@@H](Cc1ccncc1)C(=O)O; αMeL = CC(C)C[C@](C)(N)C(=O)O; αMeS = C[C@](N)(CO)C(=O)O; Orn = NCCC[C@H](N)C(=O)O; AEEA = NCCOCCOCC(=O)O; Aib = CC(C)(N)C(=O)O
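Throughout, for Relative cAMP EC50, hGIPR: intracellular cAMP rise after 30 min at 37 °C read by HTRF against a standard curve, scaled between buffer alone (0%) and top control ligand concentration (100%), four-parameter fit.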
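Throughout, for Relative cAMP EC50, hGLP-1R: intracellular cAMP rise after 30 min at 37 °C read by HTRF, normalized between buffer only (0%) and maximal control ligand (100%), four-parameter variable-slope fit.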
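Throughout, for Relative cAMP EC50, hGcgR: intracellular cAMP rise after 30 min at 37 °C, read by HTRF against a cAMP standard curve, scaled from buffer only (0%) to maximal control ligand response (100%).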

T1 sequence (P43220 24-463): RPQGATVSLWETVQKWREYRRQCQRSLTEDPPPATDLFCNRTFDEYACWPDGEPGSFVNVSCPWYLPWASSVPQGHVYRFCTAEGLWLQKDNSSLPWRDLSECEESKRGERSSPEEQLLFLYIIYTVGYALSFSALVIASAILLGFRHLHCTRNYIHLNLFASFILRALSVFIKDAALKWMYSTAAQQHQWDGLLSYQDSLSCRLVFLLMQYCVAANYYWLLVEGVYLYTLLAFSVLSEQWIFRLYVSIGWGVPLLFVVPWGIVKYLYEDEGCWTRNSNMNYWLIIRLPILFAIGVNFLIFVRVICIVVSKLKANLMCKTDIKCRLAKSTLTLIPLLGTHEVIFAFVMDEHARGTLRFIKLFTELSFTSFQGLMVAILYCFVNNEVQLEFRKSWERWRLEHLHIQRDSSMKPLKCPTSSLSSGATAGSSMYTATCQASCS
Sequence of human GcgR (P47871 26-477): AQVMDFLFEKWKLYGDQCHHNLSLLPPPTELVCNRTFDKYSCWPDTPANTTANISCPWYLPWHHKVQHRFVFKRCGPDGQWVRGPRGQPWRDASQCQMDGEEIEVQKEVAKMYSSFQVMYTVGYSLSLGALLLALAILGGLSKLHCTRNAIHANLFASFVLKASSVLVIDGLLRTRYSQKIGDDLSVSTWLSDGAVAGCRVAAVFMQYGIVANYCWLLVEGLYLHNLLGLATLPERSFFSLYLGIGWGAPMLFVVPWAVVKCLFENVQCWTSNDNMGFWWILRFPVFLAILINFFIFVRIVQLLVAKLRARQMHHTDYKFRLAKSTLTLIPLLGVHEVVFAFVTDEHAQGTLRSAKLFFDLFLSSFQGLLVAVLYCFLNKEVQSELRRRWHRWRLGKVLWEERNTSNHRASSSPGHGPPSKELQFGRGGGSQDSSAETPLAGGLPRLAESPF
Sequence of hGcgR (P47871 26-477): as above

Take `CC[C@H](C)[C@H](NC(=O)[C@H](Cc1ccccc1)NC(=O)[C@H](C)NC(=O)C(C)(C)NC(=O)[C@H](CCC(N)=O)NC(=O)[C@H](C)NC(=O)[C@H](CCCCNC(=O)COCCOCCNC(=O)CC[C@H](NC(=O)CCCCCCCCCCCCCCCCC(=O)O)C(=O)O)NC(=O)[C@H](CCCCN)NC(=O)[C@H](CC(=O)O)NC(=O)[C@H](CC(C)C)NC(=O)[C@H](CC(C)C)NC(=O)[C@@H](NC(=O)[C@](C)(CO)NC(=O)[C@H](Cc1cccnc1)NC(=O)[C@H](CC(=O)O)NC(=O)[C@H](CO)NC(=O)[C@@H](NC(=O)[C@](C)(Cc1ccccc1F)NC(=O)[C@@H](NC(=O)CNC(=O)[C@H](CCC(N)=O)NC(=O)C(C)(C)NC(=O)[C@@H](N)Cc1ccc(O)cc1)[C@@H](C)O)[C@@H](C)O)[C@@H](C)CC)C(=O)N[C@@H](CCC(=O)O)C(=O)N[C@@H](Cc1ccc(O)cc1)C(=O)N[C@@H](CC(C)C)C(=O)N[C@@H](CCC(=O)O)C(=O)N[C@@H](CCC(=O)O)C(=O)NCC(=O)NCC(=O)N1CCC[C@H]1C(=O)N[C@@H](CO)C(=O)N[C@@H](CO)C(=O)NCC(=O)N[C@@H](C)C(=O)N1CCC[C@H]1C(=O)N1CCC[C@H]1C(=O)N1CCC[C@H]1C(=O)N[C@@H](CCC(=O)O)C(N)=O` [Example 465] (H-Y[Aib]QGT[αMePhe(2-F)]TSD[3Pal][αMeS]ILLDKK([AEEA-γGlu-C18 diacid])AQ[Aib]AFIEYLEEGGPSSGAPPPE-NH2): the concentration giving a half-maximal response (EC50) is 56.3 nM on hGLP-1R [1]; 233 nM at human GcgR; 44.6 nM at hGIPR [2]; 1.5 nM on hGcgR; 0.575 nM at hGLP-1R [3]; 0.148 nM at hGIPR [4].
As for “H-Y[Aib]QGT[αMePhe(2-F)]TSDYSILLDKQAAK([AEEA-AEEA-γGlu-C20 diacid])EFIEYLIEGGPSSGEPPPSEG-NH2 [Example 348]”, the EC50 on hGLP-1R [1] stood at 136 nM; on human GcgR, 1250 nM; at hGIPR [2], 36.4 nM; on hGcgR (setting [5]), 3.9 nM; on hGLP-1R [3] (setting [5]), 0.346 nM; at hGIPR [4] (setting [5]), 0.127 nM.
Take “H-Y[Aib]QGT[αMePhe(2-F)]TSD[4Pal][αMeS]I[αMeL]LD[Orn]K([Glu-γGlu-C18 diacid])AQ[Aib][Orn]FI[dE][αMeY]LSEGGPSSGEPPPSGTE-NH2 [Example 563]”: the 50% effective concentration (EC50) worked out at 98.7 nM at hGLP-1R [1]; 1010 nM at human GcgR; 11.8 nM on hGIPR [2]; 8.3 nM on hGcgR; 1.01 nM at hGLP-1R [3]; 0.132 nM at hGIPR [4].
With “H-Y[Aib]QGT[αMePhe(2-F)]TSD[4Pal][αMeS]I[αMeL]LD[Orn]K([γGlu-γGlu-C18 diacid])AQ[αMe4Pal]EFI[dE][αMeY]LIEGGPSSGEPPPSGSE-NH2 [Example 716]”, the EC50 at hGLP-1R [1] is 24.1 nM; on human GcgR it was 100 nM; at hGIPR [2] it was 0.557 nM; on hGcgR, 1.12 nM; at hGLP-1R [3], 0.321 nM; on hGIPR [4], 0.00853 nM.
For “H-Y[Aib]QGT[αMePhe(2-F)]TSD[4Pal][αMeS]I[αMeL]LD[Orn]K([γGlu-γGlu-C18 diacid])AQ[αMe4Pal]EFI[dE][αMeY]LIEGGPSSGEPPPSGE-NH2 [Example 1151]”, the EC50 on hGLP-1R [1] came to 40 nM; on human GcgR, 206 nM; on hGIPR [2], 0.287 nM; on hGcgR (setting [5]), 1.31 nM; on hGLP-1R [3] (setting [5]), 0.262 nM; on hGIPR [4] (setting [5]), 0.00339 nM.
Consider “H-Y[Aib]QGT[αMePhe(2-F)]TSD[4Pal]SI[αMeL]LD[Orn]K([γGlu-γGlu-C18 diacid])AQ[αMe4Pal][Orn]FI[dE][αMeY]LIEGGPSSGEPPPEEG-NH2 [Example 681]”, for which the EC50 at hGLP-1R [1] came out at 14.2 nM; on human GcgR it was 104 nM; on hGIPR [2] it was 0.395 nM; at hGcgR, 1.35 nM; at hGLP-1R [3] it was 0.257 nM; at hGIPR [4], 0.00663 nM.
Turning to “H-Y[Aib]QGT[αMePhe(2-F)]TSD[4Pal]SI[αMeL]LD[Orn]K([γGlu-γGlu-C18 diacid])AQ[αMe4Pal][Orn]FI[dE][αMeY]LIEGGPSSGEPPPEGE-NH2 [Example 683]”, the concentration for a half-maximal effect (EC50) on hGLP-1R [1] was found to be 14.3 nM; at human GcgR, 137 nM; on hGIPR [2] it was 0.492 nM; on hGcgR it was 1.57 nM; on hGLP-1R [3] it was 0.214 nM; at hGIPR [4], 0.00798 nM.
